Test results taken from PMC8226449, “In Vitro Evaluation of the Squaramide-Conjugated Fibroblast Activation Protein Inhibitor-Based Agents AAZTA^5.SA.FAPi and DOTA.SA.FAPi” (Molecules, 2021).
Like-named read-outs stand apart in the source and are kept apart here. Values belong to the compound of their own block, whether it stands above or below them.

Assays:
[1] = biological target: T1, Recombinant human PREP (Homo sapiens, UniProt P48147); assay: PREP inhibition assay (IC50, Suc-Gly-Pro-AMC substrate); format: biochemical; details: mean with standard deviation, n = 3
T1 construct: made in house
T1 sequence (P48147 1-710): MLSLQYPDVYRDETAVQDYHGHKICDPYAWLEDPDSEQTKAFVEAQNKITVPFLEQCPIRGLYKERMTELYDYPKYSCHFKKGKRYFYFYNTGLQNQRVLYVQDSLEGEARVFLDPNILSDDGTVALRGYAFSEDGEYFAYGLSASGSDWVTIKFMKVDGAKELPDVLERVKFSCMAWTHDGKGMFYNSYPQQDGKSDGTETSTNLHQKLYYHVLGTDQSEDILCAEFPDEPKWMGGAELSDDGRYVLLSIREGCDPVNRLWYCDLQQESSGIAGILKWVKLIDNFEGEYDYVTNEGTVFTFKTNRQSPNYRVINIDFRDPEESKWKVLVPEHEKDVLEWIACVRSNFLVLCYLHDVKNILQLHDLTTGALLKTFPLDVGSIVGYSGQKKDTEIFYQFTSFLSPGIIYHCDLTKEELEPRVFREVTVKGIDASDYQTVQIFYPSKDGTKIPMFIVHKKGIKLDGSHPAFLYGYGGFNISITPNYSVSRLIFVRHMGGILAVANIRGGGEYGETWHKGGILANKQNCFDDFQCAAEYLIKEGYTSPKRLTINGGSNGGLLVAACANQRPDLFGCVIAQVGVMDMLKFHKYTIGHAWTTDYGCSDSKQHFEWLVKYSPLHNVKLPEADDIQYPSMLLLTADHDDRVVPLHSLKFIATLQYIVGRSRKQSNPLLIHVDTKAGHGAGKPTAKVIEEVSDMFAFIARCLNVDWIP
Method: (§1) Enzymes: Recombinant human FAP and PREP were expressed and purified as published. Recombinant human dipeptidyl 9 (DPP9) was purified as described by De Decker et al.. Human dipeptidyl peptidase 4 was purified from seminal plasma as published.
(§2) IC50 measurements and counter-screening: IC50-measurements of the probes for FAP and PREP were carried out as published, using, respectively, Z-Gly-Pro-AMC and Suc-Gly-Pro-AMC as the substrate. IC50 experiments were repeated in triplicate, and the results are presented as mean ± standard deviation. Methods and data fitting were performed as published earlier. Screening against DPP4 and DPP9 was performed at final probe concentrations of 10 µM and 1 µM using Ala-Pro-paranitroanilide (pNA) as the substrate at the respective final concentrations of 25 μM (DPP4) and 150 μM (DPP9) at pH 7.4 (0.05 M HEPES-NaOH buffer with 0.1% Tween-20, 0.1 mg/mL BSA, and 150 mM NaCl). Probes were pre-incubated with the respective enzyme for 15 min at 37 °C; afterwards, the substrate was added, and the velocities of pNA release were measured kinetically at 405 nm for at least 10 min at 37 °C. Measurements were executed using the Infinite 200 (Tecan Group Ltd., Mennendorf, Switzerland), and the Magellan software was used to process the data.

[2] = tested on: DPPs (DPP4 and DPP9); assay: Counter-screening against DPP4 and DPP9 (Ala-Pro-pNA substrate); format: biochemical, human; details: screened at 10 µM and 1 µM, reported as >1 µM if remaining activity more than 50% at 1 µM, n = 2
Method: as §1, §2

[3] = biological target: T2, Recombinant human FAP (Homo sapiens, UniProt Q12884); assay: FAP inhibition assay (IC50, Z-Gly-Pro-AMC substrate); format: biochemical; details: for IC50: mean with standard deviation, n = 3; for Selectivitiy Index (FAP/PREP): ratio of PREP IC50 and FAP IC50
T2 construct: made in house
T2 sequence (Q12884 1-760): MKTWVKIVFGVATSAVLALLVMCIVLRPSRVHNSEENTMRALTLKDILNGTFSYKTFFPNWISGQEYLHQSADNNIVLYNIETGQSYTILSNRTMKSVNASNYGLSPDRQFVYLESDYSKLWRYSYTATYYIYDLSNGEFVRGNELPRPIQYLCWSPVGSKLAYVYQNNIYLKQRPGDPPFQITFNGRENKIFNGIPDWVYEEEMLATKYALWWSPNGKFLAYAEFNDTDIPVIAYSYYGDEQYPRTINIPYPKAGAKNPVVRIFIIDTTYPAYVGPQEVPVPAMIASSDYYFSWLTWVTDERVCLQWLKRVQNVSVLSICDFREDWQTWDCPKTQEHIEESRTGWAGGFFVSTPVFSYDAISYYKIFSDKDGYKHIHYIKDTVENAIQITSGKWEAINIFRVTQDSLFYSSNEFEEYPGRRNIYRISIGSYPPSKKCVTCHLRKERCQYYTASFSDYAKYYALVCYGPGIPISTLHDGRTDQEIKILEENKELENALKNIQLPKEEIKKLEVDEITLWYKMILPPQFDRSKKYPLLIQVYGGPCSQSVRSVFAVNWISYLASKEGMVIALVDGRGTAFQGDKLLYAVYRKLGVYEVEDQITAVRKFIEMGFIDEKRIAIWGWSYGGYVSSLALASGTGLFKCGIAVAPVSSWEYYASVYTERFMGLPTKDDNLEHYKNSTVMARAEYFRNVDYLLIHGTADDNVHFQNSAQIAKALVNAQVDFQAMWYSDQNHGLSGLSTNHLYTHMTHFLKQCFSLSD
Method: as §1, §2

[4] = biological target: T2, Recombinant human FAP; set-up: method as in Moon et al. [24]; details: mean with standard deviation; ref Moon et al. [24]; cited from earlier work
[5] = biological target: T1, Recombinant human PREP; details: mean with standard deviation; ref Moon et al. [24]; cited from earlier work
[6] = Stability of radiolabelled complexes in PBS, saline (NaCl) and ethanol; format: physicochemical; details: 37 °C; for intact conjugate (stability): PBS and NaCl
Method: (§3) Labeling was carried out with 100–150 MBq gallium-68 in 300 µL of 1 M ammonium acetate (AmAc) buffer pH 5.5 and with 30–40 MBq scandium-44 in 1 mL of 0.25 M AmAc pH 4.0, and aliquots were taken at 1, 3, 5, 10, and 15 min. For lutetium-177, activity of 30–40 MBq in 300 µL of 1 M AmAc pH 5.5 was used, and aliquots were taken at 1, 3, 5, 15, 30, and 60 min. Stability was tested in 500 µL of human serum, phosphate-buffered saline, ethanol, and saline (0.9% isotonic NaCl solution) using ~5 MBq of tracer solution with >95% radiochemical purity. […] HS (human male AB plasma, USA origin) and PBS were purchased from Sigma Aldrich, and 0.9% saline from B. Braun Melsungen AG (Melsungen, Germany).

[7] = Stability of radiolabelled complexes in human serum; format: in vitro ADME; details: human serum (HS), 37 °C
Method: as §3

[8] = Lipophilicity (logD) by shake-flask method; format: physicochemical; details: pH = 7.4, 1-octanol/PBS
Method: Lipophilicity (logD value) was determined via the “shake-flask” method. For both precursors AAZTA^5.SA.FAPi and DOTA.SA.FAPi logD (pH = 7.4), values were measured for the ^68Ga- and ^44Sc complexes.
Lipophilicity of [^68Ga]Ga-AAZTA^5.SA.FAPi, [^44Sc]Sc-AAZTA^5.SA.FAPi and [^68Ga]Ga-DOTA.SA.FAPi was determined using the “shake-flask” methodology. After reaction of the precursor with the respective radionuclide, the reaction solution was adjusted to pH 7.4 with NaOH. Aliquots of ~5 MBq for the ^68Ga complexes and of ~3 MBq for the ^44Sc-complexed were taken and adjusted to a total volume of 700 μL with PBS (n= 4). 700 μL 1-octanol was added, and the solution was shaken for 2 min (1500 rpm). Afterwards, each tube was centrifuged for 2 min. 400 μL of the octanol- and PBS phases were pipetted in new tubes, and aliquots of each phase (3 µL of the PBS phase and 6 μL of the octanol phase) were measured via radio-TLC. The PBS phases were adjusted to 700 µL, and 700 μL octanol was added to each tube. The procedure was repeated twice. LogD values were calculated as the logarithm of the octanol/PBS ratio.

- IC50 [1]: 3600 ± 800 nM
- IC50 [3]: 0.57 ± 0.04 nM
- Selectivitiy Index (FAP/PREP) [3]: 6316
SMILES: N#C[C@@H]1CC(F)(F)CN1C(=O)CNC(=O)c1ccnc2ccc(OCCCCNc3c(NCCNC(=O)CCCCC4(N(CC(=O)[O-])CC(=O)[O-])CN(CC(=O)[O-])CCN(CC(=O)[O-])C4)c(=O)c3=O)cc12.[Sc+3] [[^natSc]Sc-AAZTA^5.SA.FAPi]
- IC50 [2]: > 1000 nM

- Selectivitiy Index (FAP/PREP) [3]: 6214
SMILES: N#C[C@@H]1CC(F)(F)CN1C(=O)CNC(=O)c1ccnc2ccc(OCCCCNc3c(NCCNC(=O)CN4CCN(CC(=O)[O-])CCN(CC(=O)[O-])CCN(CC(=O)[O-])CC4)c(=O)c3=O)cc12.[Ga+3] [[^natGa]Ga-DOTA.SA.FAPi]
- IC50 [4]: 1.4 ± 0.2 nM
- IC50 [5]: 8700 ± 900 nM
- IC50 [2]: > 1000 nM

- intact conjugate (stability) ([6]; 2 d): > 99%
- intact conjugate (stability) ([6]; 3 d): > 98%
- intact conjugate (stability) ([6]; 10 days): > 95%
- intact conjugate (stability) ([7]; 1 h): > 99%
- intact conjugate (stability) ([7]; 3 h): > 98%
- intact conjugate (stability) ([7]; 1 d): > 83%
- intact conjugate (stability) ([7]; 2 d): > 64%
- intact conjugate (stability) ([7]; 3 d): > 55%
SMILES: N#C[C@@H]1CC(F)(F)CN1C(=O)CNC(=O)c1ccnc2ccc(OCCCCNc3c(NCCNC(=O)CCCCC4(N(CC(=O)[O-])CC(=O)[O-])CN(CC(=O)[O-])CCN(CC(=O)[O-])C4)c(=O)c3=O)cc12.[177Lu+3] [[^177Lu]Lu-AAZTA^5.SA.FAPi]

- Selectivitiy Index (FAP/PREP) [3]: 2113
SMILES: CN(CC(=O)O)C1(CCCCC(=O)NCCNc2c(NCCCCOc3ccc4nccc(C(=O)NCC(=O)N5CC(F)(F)C[C@H]5C#N)c4c3)c(=O)c2=O)CN(CC(=O)O)CCN(CC(=O)O)C1 [DATA^5m.SA.FAPi, reference compound]
- IC50 [4]: 0.8 ± 0.2 nM
- IC50 [5]: 1700 ± 100 nM

- intact conjugate (stability) ([6]; 8 h): > 97%
- intact conjugate (stability) ([7]; 8 h): > 97%
SMILES: N#C[C@@H]1CC(F)(F)CN1C(=O)CNC(=O)c1ccnc2ccc(OCCCCNc3c(NCCNC(=O)CN4CCN(CC(=O)[O-])CCN(CC(=O)[O-])CCN(CC(=O)[O-])CC4)c(=O)c3=O)cc12.[44Sc+3] [[^44Sc]Sc-DOTA.SA.FAPi]

SMILES: N#C[C@@H]1CC(F)(F)CN1C(=O)CNC(=O)c1ccnc2ccccc12 [UAMC1110-FAP inhibitor, reference compound]
- IC50 [2]: > 10000 nM

- IC50 [1]: 3200 ± 600 nM
- IC50 [3]: 0.55 ± 0.04 nM
- Selectivitiy Index (FAP/PREP) [3]: 5818
SMILES: N#C[C@@H]1CC(F)(F)CN1C(=O)CNC(=O)c1ccnc2ccc(OCCCCNc3c(NCCNC(=O)CCCCC4(N(CC(=O)[O-])CC(=O)[O-])CN(CC(=O)[O-])CCN(CC(=O)[O-])C4)c(=O)c3=O)cc12.[Lu+3] [[^natLu]Lu-AAZTA^5.SA.FAPi]
- IC50 [2]: > 1000 nM

- intact conjugate (stability) ([6]; 1 h): > 99%
- intact conjugate (stability) ([6]; 8 h): > 99%
- intact conjugate (stability) ([7]; 1 h): > 99%
- intact conjugate (stability) ([7]; 8 h): > 97%
- LogD7.4 [8]: −2.50 ± 0.11
SMILES: N#C[C@@H]1CC(F)(F)CN1C(=O)CNC(=O)c1ccnc2ccc(OCCCCNc3c(NCCNC(=O)CCCCC4(N(CC(=O)[O-])CC(=O)[O-])CN(CC(=O)[O-])CCN(CC(=O)[O-])C4)c(=O)c3=O)cc12.[44Sc+3] [[^44Sc]Sc-AAZTA^5.SA.FAPi]

- intact complexes (stability) ([6]; ethanol (EtOH) and saline (NaCl), over 2 h): > 99.9%
- intact complexes (stability) ([7]; over 2 h): > 99.9%
- LogD7.4 [8]: −2.53 ± 0.13
SMILES: N#C[C@@H]1CC(F)(F)CN1C(=O)CNC(=O)c1ccnc2ccc(OCCCCNc3c(NCCNC(=O)CCCCC4(N(CC(=O)[O-])CC(=O)[O-])CN(CC(=O)[O-])CCN(CC(=O)[O-])C4)c(=O)c3=O)cc12.[68Ga+3] [[^68Ga]Ga-AAZTA^5.SA.FAPi]

- IC50 [1]: 2400 ± 400 nM
- IC50 [3]: 0.56 ± 0.02 nM
- Selectivitiy Index (FAP/PREP) [3]: 4286
SMILES: N#C[C@@H]1CC(F)(F)CN1C(=O)CNC(=O)c1ccnc2ccc(OCCCCNc3c(NCCNC(=O)CCCCC4(N(CC(=O)O)CC(=O)O)CN(CC(=O)O)CCN(CC(=O)O)C4)c(=O)c3=O)cc12 [AAZTA^5.SA.FAPi]
- IC50 [2]: > 1000 nM

- intact conjugate (stability) ([6]; 3 d): > 98%
- intact conjugate (stability) ([6]; 10 days): > 93%
- intact conjugate (stability) ([7]; 10 days): > 99%
SMILES: N#C[C@@H]1CC(F)(F)CN1C(=O)CNC(=O)c1ccnc2ccc(OCCCCNc3c(NCCNC(=O)CN4CCN(CC(=O)[O-])CCN(CC(=O)[O-])CCN(CC(=O)[O-])CC4)c(=O)c3=O)cc12.[177Lu+3] [[^177Lu]Lu-DOTA.SA.FAPi]

- Selectivitiy Index (FAP/PREP) [3]: 3125
SMILES: N#C[C@@H]1CC(F)(F)CN1C(=O)CNC(=O)c1ccnc2ccc(OCCCCNc3c(NCCNC(=O)CN4CCN(CC(=O)[O-])CCN(CC(=O)[O-])CCN(CC(=O)[O-])CC4)c(=O)c3=O)cc12.[Lu+3] [[^natLu]Lu DOTA.SA.FAPi]
- IC50 [4]: 0.8 ± 0.2 nM
- IC50 [5]: 2500 ± 400 nM
- IC50 [2]: > 1000 nM
